Numbers after ± are expanded uncertainties.
Experiments:
[1] = Boiling temperature at pressure P; conditions: Liquid, Ebulliometric method (Recirculating still)
[2] = Liquid, Ebulliometric method (Recirculating still)

Structure (SMILES): Cc1cccc(C)c1O [2,6-dimethylphenol]
- Boiling temperature at pressure P ([1]; 6.7 kPa): 116.91 ± 0.54 °C
- Boiling temperature at pressure P ([1]; 8.87 kPa): 122.99 ± 0.52 °C
- Boiling temperature at pressure P ([1]; 10.89 kPa): 128.28 ± 0.47 °C
- Boiling temperature at pressure P ([1]; 12.74 kPa): 132.49 ± 0.41 °C
- Boiling temperature at pressure P ([1]; 14.98 kPa): 136.82 ± 0.37 °C
- Boiling temperature at pressure P ([1]; 16.8 kPa): 140.18 ± 0.34 °C
- Boiling temperature at pressure P ([1]; 18.91 kPa): 143.50 ± 0.3 °C
- Boiling temperature at pressure P ([1]; 20 kPa): 144.96 ± 0.27 °C
- Boiling temperature at pressure P ([1]; 21.02 kPa): 146.28 ± 0.28 °C
- Boiling temperature at pressure P ([1]; 22.83 kPa): 148.86 ± 0.29 °C
- Boiling temperature at pressure P ([1]; 33.02 kPa): 163.40 ± 0.28 °C
- Boiling temperature at pressure P ([1]; 35.64 kPa): 165.8 ± 0.2 °C
- vapor or sublimation pressure ([2]; 418.11 K): 20 ± 0.2 kPa

Structure (SMILES): Cc1ccccc1O [2-methylphenol]
- Boiling temperature at pressure P ([1]; 20 kPa): 138.11 ± 0.17 °C
- vapor or sublimation pressure ([2]; 411.26 K): 20 ± 0.2 kPa

Structure (SMILES): Cc1cccc(O)c1 [3-methylphenol]
- Boiling temperature at pressure P ([1]; 9.29 kPa): 129.09 ± 0.46 °C
- Boiling temperature at pressure P ([1]; 11.93 kPa): 135.40 ± 0.41 °C
- Boiling temperature at pressure P ([1]; 14.57 kPa): 140.24 ± 0.37 °C
- Boiling temperature at pressure P ([1]; 16.68 kPa): 144.32 ± 0.34 °C
- Boiling temperature at pressure P ([1]; 18.79 kPa): 147.39 ± 0.29 °C
- Boiling temperature at pressure P ([1]; 20 kPa): 149.01 ± 0.29 °C
- Boiling temperature at pressure P ([1]; 20.91 kPa): 150.40 ± 0.26 °C
- Boiling temperature at pressure P ([1]; 23.02 kPa): 152.89 ± 0.25 °C
- Boiling temperature at pressure P ([1]; 25.13 kPa): 155.41 ± 0.25 °C
- vapor or sublimation pressure ([2]; 422.16 K): 20 ± 0.2 kPa
- vapor or sublimation pressure ([2]; 422.28 K): 20 ± 0.2 kPa

From the NIST ThermoML archive (doi:10.1016/j.fluid.2017.12.011)
